Laboratory results reported in patent US12077503B2, “Substituted cyclic amides and their use as herbicides” (FMC CORPORATION, priority 2015, dated 2024).

How the values were obtained:
Type in all cases: in vivo
[1] = tested on: pigweed (Amaranthus retroflexus); assay: Test A postemergence
Summary of the method: (§1)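 In a loam soil and sand blend, planted seeds got a preemergence directed soil spray, and young plants at the one- to two-leaf stage, 2–10 cm high, got a postemergence application; ~10 d greenhouse hold; injury rated visually, 0 = none, 100 = complete control.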

[2] = tested on: Galium (catchweed bedstraw, Galium aparine); assay: Test A postemergence
Summary of the method: as §1

[3] = tested on: ragweed (common ragweed, Ambrosia elatior); assay: Test A postemergence
Summary of the method: as §1

[4] = tested on: barnyardgrass (Echinochloa crus-galli); assay: Test A postemergence
Summary of the method: as §1

corn (Zea mays) = assay: Test A postemergence
Summary of the method: as §1

[5] = tested on: wheat (Triticum aestivum); assay: Test A postemergence
Summary of the method: as §1

[6] = tested on: giant foxtail (Setaria faberii); assay: Test A postemergence
Summary of the method: as §1

[7] = tested on: blackgrass (Alopecurus myosuroides); assay: Test A postemergence
Summary of the method: as §1

[8] = tested on: ryegrass, Italian (Italian ryegrass, Lolium multiflorum); assay: Test A postemergence
Summary of the method: as §1

Kochia (Kochia scoparia) [9] = assay: Test A postemergence
Summary of the method: as §1

[10] = tested on: pigweed (Amaranthus retroflexus); assay: Test A preemergence; conditions: for Pigweed plant response rating (0 to 100 scale, 0 is no effect, 100 is complete control): visual injury approx. 10 d
[11] = tested on: ragweed (common ragweed, Ambrosia elatior); assay: Test A preemergence; conditions: for Ragweed plant response rating (0 to 100 scale, 0 is no effect, 100 is complete control): visual injury approx. 10 d
Summary of the method: as §1

[12] = tested on: barnyardgrass (Echinochloa crus-galli); assay: Test A preemergence; conditions: for Barnyardgrass plant response rating (0 to 100 scale, 0 is no effect, 100 is complete control): visual injury approx. 10 d
Summary of the method: as §1

[13] = tested on: giant foxtail (Setaria faberii); assay: Test A preemergence; conditions: for Foxtail, Giant plant response rating (0 to 100 scale, 0 is no effect, 100 is complete control): visual injury approx. 10 d
Summary of the method: as §1

[14] = tested on: ryegrass, Italian (Italian ryegrass, Lolium multiflorum); assay: Test A preemergence; conditions: for Ryegrass, Italian plant response rating (0 to 100 scale, 0 is no effect, 100 is complete control): visual injury approx. 10 d
Summary of the method: as §1

Kochia (Kochia scoparia) [15] = assay: Test A preemergence; conditions: for Kochia plant response rating (0 to 100 scale, 0 is no effect, 100 is complete control): visual injury approx. 10 d
Summary of the method: as §1

[16] = tested on: barnyardgrass (Echinochloa crus-galli); assay: Test B flooded paddy test; conditions: Flood, 250 g ai/ha; 0 to 100 scale where 0 is no effect and 100 is complete control; 13 to 15 d
Summary of the method: (§2)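 Greenhouse paddy pots with 2-leaf stage plants received compound by direct addition to floodwater 3 cm deep, kept at that level. Scored visually at 13–15 d versus controls (0 no effect; 100 complete control).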

rice (Oryra sativa) = assay: Test B flooded paddy test; conditions: Flood, 250 g ai/ha; 0 to 100 scale where 0 is no effect and 100 is complete control; 13 to 15 d
Summary of the method: as §2

[17] = tested on: sedge, umbrella (small-flower umbrella sedge, Cyperus difformis); assay: Test B flooded paddy test; conditions: Flood, 250 g ai/ha; 0 to 100 scale where 0 is no effect and 100 is complete control; 13 to 15 d
Summary of the method: as §2

[18] = tested on: ducksalad (Heteranthera limosa); assay: Test B flooded paddy test; conditions: Flood, 250 g ai/ha; 0 to 100 scale where 0 is no effect and 100 is complete control; 13 to 15 d
Summary of the method: as §2

[19] = 125 g ai/ha, postemergence, visual rating after approx. 10 d, 0 to 100 scale (0 no effect, 100 complete control)
[20] = Postemergence, 500 g ai/ha, 0 to 100 scale where 0 is no effect and 100 is complete control
[21] = 125 g ai/ha, Preemergence, visual injury after approximately 10 d, 0 to 100 scale where 0 is no effect and 100 is complete control
[22] = 500 g ai/ha, preemergence, 0 to 100 scale, 0 = no effect, 100 = complete control

Row | SMILES | Plant response rating, Pigweed [1, 19] | Plant response rating, Pigweed [1, 20] | Plant response rating, Galium [2, 19] | Plant response rating, Galium [2, 20] | Plant response rating, Ragweed [3, 19] | Plant response rating, Ragweed [3, 20] | Plant response rating, Barnyardgrass [4, 19] | Plant response rating, Barnyardgrass [4, 20] | Plant response rating, Corn (corn (Zea mays); [19]) | Plant response rating, Corn (corn (Zea mays); [20]) | Plant response rating, Wheat [5, 19] | Plant response rating, Wheat [5, 20] | Plant response rating, Foxtail, Giant [6, 19] | Plant response rating, Foxtail, Giant [6, 20] | Plant response rating, Blackgrass [7, 19] | Plant response rating, Blackgrass [7, 20] | Plant response rating, Ryegrass, Italian [8, 19] | Plant response rating, Ryegrass, Italian [8, 20] | Plant response rating, Kochia (Kochia (Kochia scoparia) [9]; [19]) | Plant response rating, Kochia (Kochia (Kochia scoparia) [9]; [20]) | further results
1 | O=C1NCC(c2cc(Cl)sc2Cl)C1C(=O)Nc1cccc(F)c1F (stereo not drawn) [Compound 601] | 0 | 0 | 0 | 0 | 0 | 0 | 20 | 70 | 0 | 20 | 0 | 20 | 20 | 50 | 0 | 0 | 0 | 0 | 0 | 0 | Plant response rating, Pigweed [10, 21]: 0; Pigweed plant response rating (0 to 100 scale, 0 is no effect, 100 is complete control) ([10]; Preemergence, 500 g ai/ha): 0; Plant response rating, Ragweed [11, 21]: 0; Ragweed plant response rating (0 to 100 scale, 0 is no effect, 100 is complete control) ([11]; Preemergence, 500 g ai/ha): 0; Plant response rating, Barnyardgrass [12, 21]: 60; Barnyardgrass plant response rating (0 to 100 scale, 0 is no effect, 100 is complete control) ([12]; Preemergence, 500 g ai/ha): 80; Plant response rating, Foxtail, Giant [13, 21]: 70; Foxtail, Giant plant response rating (0 to 100 scale, 0 is no effect, 100 is complete control) ([13]; Preemergence, 500 g ai/ha): 80; Plant response rating, Ryegrass, Italian [14, 21]: 0; Ryegrass, Italian plant response rating (0 to 100 scale, 0 is no effect, 100 is complete control) ([14]; Preemergence, 500 g ai/ha): 0; Plant response rating, Kochia (Kochia (Kochia scoparia) [15]; [21]): 0; Kochia plant response rating (0 to 100 scale, 0 is no effect, 100 is complete control) (Kochia (Kochia scoparia) [15]; Preemergence, 500 g ai/ha): 0; Plant response rating, Barnyardgrass [16]: 40; Plant response rating, Rice (rice (Oryra sativa)): 0; Plant response rating, Sedge, Umbrella [17]: 0; Plant response rating, Ducksalad [18]: 75
2 | O=C(Nc1ccccc1F)C1C(=O)N(c2ccc([N+](=O)[O-])cc2)CC1c1cccc(C(F)(F)F)c1 (stereo not drawn) [Compound 602] | 0 | 0 | 0 | 0 | 0 | 0 | 0 | 0 | 0 | 0 | 0 | 0 | 0 | 0 | 0 | 0 | 0 | 0 | 0 | 0 | Plant response rating, Pigweed [10, 21]: 0; Pigweed plant response rating (0 to 100 scale, 0 is no effect, 100 is complete control) ([10]; Preemergence, 500 g ai/ha): 0; Plant response rating, Ragweed [11, 21]: 0; Ragweed plant response rating (0 to 100 scale, 0 is no effect, 100 is complete control) ([11]; Preemergence, 500 g ai/ha): 0; Plant response rating, Barnyardgrass [12, 21]: 0; Barnyardgrass plant response rating (0 to 100 scale, 0 is no effect, 100 is complete control) ([12]; Preemergence, 500 g ai/ha): 0; Plant response rating, Foxtail, Giant [13, 21]: 0; Foxtail, Giant plant response rating (0 to 100 scale, 0 is no effect, 100 is complete control) ([13]; Preemergence, 500 g ai/ha): 0; Plant response rating, Ryegrass, Italian [14, 21]: 0; Ryegrass, Italian plant response rating (0 to 100 scale, 0 is no effect, 100 is complete control) ([14]; Preemergence, 500 g ai/ha): 0; Plant response rating, Kochia (Kochia (Kochia scoparia) [15]; [21]): 0; Kochia plant response rating (0 to 100 scale, 0 is no effect, 100 is complete control) (Kochia (Kochia scoparia) [15]; Preemergence, 500 g ai/ha): 0; Plant response rating, Barnyardgrass [16]: 0; Plant response rating, Rice (rice (Oryra sativa)): 0; Plant response rating, Sedge, Umbrella [17]: 0; Plant response rating, Ducksalad [18]: 30
3 | C=CCN1CC(c2cccc(C(F)(F)F)c2)C(C(=O)Nc2ccccc2F)C1=O (stereo not drawn) [Compound 605] | 0 | 0 | 0 | 0 | 0 | 0 | 0 | 80 | 0 | 0 | 0 | 30 | 20 | 80 | 0 | 20 | 0 | 0 | 0 | 0 | Plant response rating, Pigweed [10, 21]: 0; Pigweed plant response rating (0 to 100 scale, 0 is no effect, 100 is complete control) ([10]; Preemergence, 500 g ai/ha): 0; Plant response rating, Ragweed [11, 21]: 0; Ragweed plant response rating (0 to 100 scale, 0 is no effect, 100 is complete control) ([11]; Preemergence, 500 g ai/ha): 0; Plant response rating, Barnyardgrass [12, 21]: 30; Barnyardgrass plant response rating (0 to 100 scale, 0 is no effect, 100 is complete control) ([12]; Preemergence, 500 g ai/ha): 70; Plant response rating, Foxtail, Giant [13, 21]: 90; Foxtail, Giant plant response rating (0 to 100 scale, 0 is no effect, 100 is complete control) ([13]; Preemergence, 500 g ai/ha): 90; Plant response rating, Ryegrass, Italian [14, 21]: 0; Ryegrass, Italian plant response rating (0 to 100 scale, 0 is no effect, 100 is complete control) ([14]; Preemergence, 500 g ai/ha): 20; Plant response rating, Kochia (Kochia (Kochia scoparia) [15]; [21]): 0; Kochia plant response rating (0 to 100 scale, 0 is no effect, 100 is complete control) (Kochia (Kochia scoparia) [15]; Preemergence, 500 g ai/ha): 0; Plant response rating, Barnyardgrass [16]: 0; Plant response rating, Rice (rice (Oryra sativa)): 0; Plant response rating, Sedge, Umbrella [17]: 0; Plant response rating, Ducksalad [18]: 50
4 | CN1CC(c2cccc(OC(F)F)c2)C(C)(C(=O)Nc2cccc(F)c2F)C1=O (stereo not drawn) [Compound 619] | 0 | 0 | 0 | 0 | 0 | 0 | 0 | 0 | 0 | 0 | 0 | 0 | 0 | 0 | 0 | 0 | 0 | 0 | 0 | 0 | Plant response rating, Pigweed [10, 21]: 0; Plant response rating, Pigweed [10, 22]: 0; Plant response rating, Ragweed [11, 21]: 0; Plant response rating, Ragweed [11, 22]: 0; Plant response rating, Barnyardgrass [12, 21]: 0; Plant response rating, Barnyardgrass [12, 22]: 0; Plant response rating, Foxtail, Giant [13, 21]: 0; Plant response rating, Foxtail, Giant [13, 22]: 0; Plant response rating, Ryegrass, Italian [14, 21]: 0; Plant response rating, Ryegrass, Italian [14, 22]: 0; Plant response rating, Kochia (Kochia (Kochia scoparia) [15]; [21]): 20; Plant response rating, Kochia (Kochia (Kochia scoparia) [15]; [22]): 20; Plant response rating, Barnyardgrass [16]: 0; Plant response rating, Rice (rice (Oryra sativa)): 0; Plant response rating, Sedge, Umbrella [17]: 0; Plant response rating, Ducksalad [18]: 0
5 | N#Cc1cccc(C2CNC(=O)C2C(=O)Nc2cccc(F)c2F)c1 (stereo not drawn) [Compound 621] | 0 | 0 | 30 | 40 | 0 | 0 | 90 | 90 | 0 | 20 | 0 | 50 | 70 | 90 | 0 | 20 | 0 | 20 | 0 | 20 | Plant response rating, Pigweed [10, 21]: 0; Plant response rating, Pigweed [10, 22]: 20; Plant response rating, Ragweed [11, 21]: 0; Plant response rating, Ragweed [11, 22]: 90; Plant response rating, Barnyardgrass [12, 21]: 90; Plant response rating, Barnyardgrass [12, 22]: 90; Plant response rating, Foxtail, Giant [13, 21]: 90; Plant response rating, Foxtail, Giant [13, 22]: 90; Plant response rating, Ryegrass, Italian [14, 21]: 0; Plant response rating, Ryegrass, Italian [14, 22]: 40; Plant response rating, Kochia (Kochia (Kochia scoparia) [15]; [21]): 0; Plant response rating, Kochia (Kochia (Kochia scoparia) [15]; [22]): 40; Plant response rating, Barnyardgrass [16]: 50; Plant response rating, Rice (rice (Oryra sativa)): 20; Plant response rating, Sedge, Umbrella [17]: 0; Plant response rating, Ducksalad [18]: 100
